Results: patent publication US10781158B2, “Methods of protecting an organ using tetrahydrocurcumin and phosphatidylcholine” (Bhupinder Singh, priority 2014, dated 2020)
Values joined by “and” are separate entries in the source; they are usually repeats but may differ in a detail not shown here. Identical values can stand only once.

Columns and labels:
5/6 nephrectomy rats [1] = experiment: Kidney fibrosis, image quantitative analysis of Trichrome stained kidney slides in CKD rats; format: in vivo, Sprague-Dawley rats; settings: for Kidney slides Trichrome stain, Relative % area fibrosis: Table 10, relative to CTL Ave 1
Text: (§1) For induction of CKD via nephron mass reduction, Sprague-Dawley rats underwent partial left nephrectomy followed by total right nephrectomy one week later. CKD rats were then randomized to 1% THC diet with polyenylphosphatidylcholine (PPC, 3 g/1000 kcal) vs. regular chow. […] Tail blood pressure measurement and 24-hour urine collection were done within a week of study termination. After 9 weeks on special diet, blood and kidneys were collected for biochemical and histologic analyses.
(§2) The experimental groups included healthy controls, CTL n=5, non-treated CKD, n=6 and CKD/THC n=6. At time of randomization to regular chow vs. THC diet, average blood urea nitrogen (BUN) was similar between the CKD groups (63.5+10.5 vs. 66+16.5 mg/dL).

5/6 nephrectomy rats [2] = experiment: Tail blood pressure measurement in 5/6 nephrectomy CKD rats; format: in vivo, Sprague-Dawley rats; set-up: Diastolic tail BP: unit not given here
Text: as §1
Rats were induced to have chronic kidney disease via nephron mass reduction, Sprague-Dawley rats underwent partial left nephrectomy followed by total right nephrectomy one week later. CKD rats were then randomized to 1% THC diet with polyenylphosphatidylcholine (PPC, 3 g/1000 kcal) vs. regular chow. The rats were then administered a dose of Buprenex, a narcotic, that can cause kidney damage.
(§3) After inducing chronic kidney disease, the rats were then treated with a pharmaceutical formulation comprising tetrahydrocurcumin, or with a pharmaceutical formulation that had both tetrahydrocurcumin and curcumin. The control group consisted of five rats, ([…]), the rats with CKD (rat number 4, 15, 20, 23, 25, 31), rats with chronic kidney disease treated with tetrahydrocurcumin (rat number 8, 11, 12, 14, 19, 21, 18 and 27) and rats treated with a combination of tetrahydrocurcumin and curcumin (rat number 1, 2, 16, 24, 28, 7, 17, 29 and 30). The measurements for the average BUN, blood pressure, body weight, delta BUN, Hgb, and Heart weight/body weight for the four groups are shown in FIGS. 2A-2G.

[3] = at acidic and at physiological pH; cited from earlier work
5/6 nephrectomy rats [4] = experiment: Plasma C-reactive protein (CRP, inflammation) in CKD rats; format: in vivo, Sprague-Dawley rats
Text: as §1
(§4) After 24 hours the rats were analyzed for proteinuria, Galectin-3, and C-reactive protein. Galectin-3 is a marker for cardiac fibrosis, and C-reactive protein is correlated with inflammation. Furthermore, a blood urea nitrogen test (BUN) was carried out with a creatinine and creatinine clearance blood test to evaluate the kidney functions and to look for nephrotoxicity.

[5] = previously shown; cited from earlier work
5/6 nephrectomy rats [6] = experiment: Proteinuria, 24-hour urine collection (total protein, urine protein/creatinine) in CKD rats; format: in vivo, Sprague-Dawley rats
Text: as §1, §4

5/6 nephrectomy rats [7] = experiment: Heart weight normalized to body weight (cardiac hypertrophy) in CKD rats; format: in vivo, Sprague-Dawley rats
Method: as §2, §3

[8] = high dosages; cited from earlier work
5/6 nephrectomy rats [9] = experiment: Galectin-3 (marker for cardiac fibrosis) in CKD rats; format: in vivo, Sprague-Dawley rats
Method: as §4

5/6 nephrectomy rats [10] = experiment: Blood urea nitrogen (BUN), creatinine and creatinine clearance blood tests (kidney function) in CKD rats; format: in vivo, Sprague-Dawley rats; set-up: Change in BUN: unit not given here
Text: as §1, §4
The blood urea nitrogen test (BUN) is primarily used with the creatinine test to evaluate kidney function and to help diagnose kidney disease. […] Therefore the pharmaceutical formulations comprising tetrahydrocurcumin with or without curcumin can be used to treat hypertension.

[11] = Table 1, CKD/THC group n = 6, 1% THC diet with PPC, 9 weeks, mean ± S.D.
[12] = group AVE, CKD rats treated with THC
[13] = individual rats (Rat#), CKD rats treated with THC
[14] = Table 1, CKD/THC group n = 6, mean ± S.D.
[15] = Table 4, group AVE (THC 8 rats, THC/curcumin 9 rats)
[16] = Table 7, individual CKD rats, incl. rats 22 and 26

SMILES: COc1cc(CCC(=O)CC(=O)CCc2ccc(O)c(OC)c2)ccc1O [THC, tetrahydrocurcumin]
- Kidney fibrosis from Trichrome stained slides: relative % area (5/6 nephrectomy rats [1]; Table 1, CKD/THC group n = 6, mean ± S.D., CTL = 1): 1.16 ± 0.24 relative % area
- Kidney slides Trichrome stain, Relative % area fibrosis (5/6 nephrectomy rats [1]; group Ave): 1.1551
- Kidney slides Trichrome stain, Relative % area fibrosis (5/6 nephrectomy rats [1]; individual kidneys): 1.396 and 1.321 and 1.345 and 0.8958 and 1.146 and 0.8269
- Diastolic blood pressure (5/6 nephrectomy rats [2]; [11]): 75.8 ± 12.8 mmHg
- Systolic blood pressure (5/6 nephrectomy rats [2]; [11]): 116.5 ± 11.1 mmHg
- Diastolic tail BP (5/6 nephrectomy rats [2]; Table 5, group AVE): 76.3
- Systolic tail BP (5/6 nephrectomy rats [2]; Table 5, group AVE): 117.4 mmHg
- Diastolic tail BP (5/6 nephrectomy rats [2]; Table 5, individual CKD rats): 95 and 69 and 60 and 78 and 81 and 67 and 77 and 83
- Systolic tail BP (5/6 nephrectomy rats [2]; Table 5, individual CKD rats): 132 mmHg and 103 mmHg and 124 mmHg (2×) and 116 mmHg and 113 mmHg and 106 mmHg and 121 mmHg
- Diastolic tail BP (5/6 nephrectomy rats [2]; [12]): 75.8
- Diastolic tail BP (5/6 nephrectomy rats [2]; individual rats (Rat#), 5/6 nephrectomy CKD rats treated with THC): 95 and 69 and 60 and 81 and 67 and 83
- Solubility in water [3]: poor solubility
- CRP (5/6 nephrectomy rats [4]; Table 3, individual CKD rats): 2.53 mg/mL and 3.22 mg/mL and 2.15 mg/mL and 4.38 mg/mL and 2.70 mg/mL and 3.43 mg/mL and 2.36 mg/mL and 1.19 mg/mL and 2.57 mg/mL
- CRP (5/6 nephrectomy rats [4]; Table 6, group AVE): 2.92 mg/mL
- CRP (5/6 nephrectomy rats [4]; Table 6, individual CKD rats): 2.53 mg/mL and 3.22 mg/mL and 2.15 mg/mL and 4.38 mg/mL and 3.43 mg/mL and 2.36 mg/mL and 2.70 mg/mL and 2.57 mg/mL
- CRP (5/6 nephrectomy rats [4]; [12]): 2.71 mg/mL
- CRP (5/6 nephrectomy rats [4]; [13]): 2.53 mg/mL and 3.22 mg/mL and 2.15 mg/mL and 3.43 mg/mL and 2.36 mg/mL and 2.57 mg/mL
- Increase of plasma levels on co-administration with a lipid carrier such as PPC [5]: 5 fold
- Proteinuria decreased compared to non-treated CKD animals (5/6 nephrectomy rats [6]; CKD/THC group, significantly decreased): ~50%
- Urine protein/creatinine (5/6 nephrectomy rats [6]; [14]): 47.91 ± 15.42 mg/g
- 24 hr total proteinuria (5/6 nephrectomy rats [6]; Table 3, individual CKD rats): 638.5 mg and 612.7 mg and 355.6 mg and 537.7 mg and 613.8 mg and 410.1 mg
- Uprot/Cr ratio (5/6 nephrectomy rats [6]; Table 3, individual CKD rats): 63.18 mg/g and 64.86 mg/g and 30.56 mg/g and 46.32 mg/g and 43.50 mg/g and 37.43 mg/g
- 24 hr total proteinuria (5/6 nephrectomy rats [6]; Table 5, group AVE): 528.07 mg
- 24 hr total proteinuria (5/6 nephrectomy rats [6]; Table 5, individual CKD rats): 638.50 mg and 612.75 mg and 355.61 mg and 537.69 mg and 613.82 mg and 410.08 mg
- 24 hr total proteinuria (5/6 nephrectomy rats [6]; [12]): 526.15 mg
- Uprot/Cr ratio (5/6 nephrectomy rats [6]; [12]): 47.91 mg/g
- 24 hr total proteinuria (5/6 nephrectomy rats [6]; [13]): 638.50 mg and 612.75 mg and 355.61 mg and 613.82 mg and 410.08 mg
- Uprot/Cr ratio (5/6 nephrectomy rats [6]; [13]): 63.18 mg/g and 64.86 mg/g and 30.56 mg/g and 43.50 mg/g and 37.43 mg/g
- Heart wet weight normalized to body weight (5/6 nephrectomy rats [7]; [14]): 3.89 ± 0.61 g/kg
- Heart wt (5/6 nephrectomy rats [7]; [15]): 1.068 g
- Heart wt/body wt (5/6 nephrectomy rats [7]; [15]): 4.16 g/kg
- Heart wt (5/6 nephrectomy rats [7]; Table 4, individual CKD rats): 1.169 g and 0.972 g and 1.165 g and 1.035 g and 0.854 g and 0.830 g and 1.530 g and 0.989 g
- Heart wt/body wt (5/6 nephrectomy rats [7]; Table 4, individual CKD rats): 4.68 g/kg and 3.61 g/kg and 4.59 g/kg and 4.33 g/kg and 3.42 g/kg and 3.22 g/kg and 5.63 g/kg and 3.80 g/kg
- Heart wt (5/6 nephrectomy rats [7]; Table 8, group AVE of 6 rats): 0.997 g
- Heart wt/body wt (5/6 nephrectomy rats [7]; Table 8, group AVE of 6 rats): 3.89 g/kg
- Heart wt (5/6 nephrectomy rats [7]; Table 8, individual CKD rats): 1.169 g and 0.972 g and 1.165 g and 0.854 g and 0.830 g and 0.989 g
- Heart wt/body wt (5/6 nephrectomy rats [7]; Table 8, individual CKD rats): 4.68 g/kg and 3.61 g/kg and 4.59 g/kg and 3.42 g/kg and 3.22 g/kg and 3.80 g/kg
- Dosage at which relatively safe [8]: 80 mgs/kg body weight
- Galectin-3 (5/6 nephrectomy rats [9]; Table 3, individual CKD rats): 285.96 ng/mL and 450.48 ng/mL and 436.37 ng/mL and 768.79 ng/mL and 273.14 ng/mL and 182.38 ng/mL
- Galectin-3 (5/6 nephrectomy rats [9]; Table 6, group AVE): 442.95 ng/mL
- Galectin-3 (5/6 nephrectomy rats [9]; Table 6, individual CKD rats): 285.96 ng/mL and 450.48 ng/mL and 436.37 ng/mL and 768.79 ng/mL and 273.14 ng/mL
- Galectin-3 (5/6 nephrectomy rats [9]; [12]): 390.94 ng/mL
- Galectin-3 (5/6 nephrectomy rats [9]; [13]): 285.96 ng/mL and 450.48 ng/mL and 436.37 ng/mL
- BUN lower at termination compared to the non-treated CKD group (5/6 nephrectomy rats [10]; CKD/THC group, 1% THC diet with PPC, 9 weeks, significantly lower): about 40%
- BUN at termination (5/6 nephrectomy rats [10]; [14]): 52.1 ± 19.1 mg/dL
- Plasma creatinine (5/6 nephrectomy rats [10]; [14]): 1.04 ± 0.22 mg/dL
- Terminal BUN (5/6 nephrectomy rats [10]; Table 3, individual CKD rats): 44.9 mg/dL and 60.3 mg/dL and 80.6 mg/dL and 107.7 mg/dL and 69.9 mg/dL and 32.1 mg/dL and 32.6 mg/dL and 201.8 mg/dL and 62.3 mg/dL
- Terminal Cr (5/6 nephrectomy rats [10]; Table 3, individual CKD rats): 0.76 mg/dL and 1.28 mg/dL and 1.25 mg/dL and 1.48 mg/dL and 1.19 mg/dL and 1.13 mg/dL and 1.01 mg/dL and 2.30 mg/dL and 0.81 mg/dL
- CrCL (5/6 nephrectomy rats [10]; Table 3, individual CKD rats, creatinine clearance): 3.71 mL/min/kg and 1.90 mL/min/kg and 2.56 mL/min/kg and 2.27 mL/min/kg and 3.46 mL/min/kg and 2.91 mL/min/kg
- Change in BUN (5/6 nephrectomy rats [10]; [15]): −6.0
- Terminal BUN (5/6 nephrectomy rats [10]; [15]): 61.3 mg/dL
- Terminal BUN (5/6 nephrectomy rats [10]; Table 4, individual CKD rats): 44.9 mg/dL and 60.3 mg/dL and 80.6 mg/dL and 107.7 mg/dL and 32.1 mg/dL and 32.6 mg/dL and 69.9 mg/dL and 62.3 mg/dL
- Change in BUN (5/6 nephrectomy rats [10]; Table 4, individual CKD rats, terminal minus randomization): −13.6 and −6.2 and −15.9 and 31.6 and −28.7 and −14.7 and 3.4 and −4.3
- CrCL (5/6 nephrectomy rats [10]; Table 6, group AVE): 2.80 mL/min/kg
- Terminal Cr (5/6 nephrectomy rats [10]; Table 6, group AVE): 1.11 mg/dL
- Terminal Cr (5/6 nephrectomy rats [10]; Table 6, individual CKD rats): 0.76 mg/dL and 1.28 mg/dL and 1.25 mg/dL and 1.48 mg/dL and 1.13 mg/dL and 1.01 mg/dL and 1.19 mg/dL and 0.81 mg/dL
- CrCL (5/6 nephrectomy rats [10]; Table 6, individual CKD rats, creatinine clearance): 3.71 mL/min/kg and 1.90 mL/min/kg and 2.56 mL/min/kg and 2.27 mL/min/kg and 3.46 mL/min/kg and 2.91 mL/min/kg
- Terminal BUN (5/6 nephrectomy rats [10]; [16]): 44.9 mg/dL and 60.3 mg/dL and 80.6 mg/dL and 107.7 mg/dL and 69.9 mg/dL and 32.1 mg/dL and 32.6 mg/dL and 201.8 mg/dL and 62.3 mg/dL
- Terminal Cr (5/6 nephrectomy rats [10]; [16]): 0.8 mg/dL (2×) and 1.3 mg/dL and 1.2 mg/dL (2×) and 1.5 mg/dL and 1.1 mg/dL and 1.0 mg/dL and 2.3 mg/dL
- Change in BUN (5/6 nephrectomy rats [10]; Table 8, group AVE of 6 rats): −13.9
- Terminal BUN (5/6 nephrectomy rats [10]; Table 8, group AVE of 6 rats): 52.1 mg/dL
- Change in BUN (5/6 nephrectomy rats [10]; Table 8, individual CKD rats): −13.6 and −6.2 and −15.9 and −28.7 and −14.7 and −4.3
- Terminal BUN (5/6 nephrectomy rats [10]; Table 8, individual CKD rats): 44.9 mg/dL and 60.3 mg/dL and 80.6 mg/dL and 32.1 mg/dL and 32.6 mg/dL and 62.3 mg/dL
- CrCL (5/6 nephrectomy rats [10]; [12]): 2.91 mL/min/kg
- Terminal sCr (5/6 nephrectomy rats [10]; [12]): 1.04 mg/dL
- CrCL (5/6 nephrectomy rats [10]; [13]): 3.71 mL/min/kg and 1.90 mL/min/kg and 2.56 mL/min/kg and 3.46 mL/min/kg and 2.91 mL/min/kg
